ChEMBL document CHEMBL3244328, “trans-2,3b,4,5,7,8b,9,10-Octahydronaphtho[1,2-c:5,6-c']dipyrazole, a new orally active antiallergic compound” (1978)
Calls of active or inactive are those of the source. The calls are words filed in the database; no cut-off is given here.

Columns and labels:
Assay type in all cases: functional
Rattus norvegicus [1] = assay: Antiallergic activity in Sprague-Dawley rat assessed as inhibition of mouse antiserum-induced passive cutaneous anaphylaxis at 100 mg/kg, po administered 1 hr before antiserum challenge measured after 3 hrs by Evans blue staining relative to control
Rattus norvegicus [2] = assay: Antiallergic activity in Sprague-Dawley rat assessed as inhibition of mouse antiserum-induced passive cutaneous anaphylaxis at 25 mg/kg, po administered 1 hr before antiserum challenge measured after 30 mins by Evans blue staining relative to control; settings: read-out: INH
Rattus norvegicus [3] = assay: Antiallergic activity in Sprague-Dawley rat assessed as inhibition of mouse antiserum-induced passive cutaneous anaphylaxis at 50 mg/kg, po administered 1 hr before antiserum challenge measured after 30 mins by Evans blue staining relative to control; settings: read-out: INH
Rattus norvegicus [4] = assay: Antiallergic activity in Sprague-Dawley rat assessed as inhibition of mouse antiserum-induced passive cutaneous anaphylaxis at 200 mg/kg, po administered 1 hr before antiserum challenge measured after 6 hrs by Evans blue staining relative to control; settings: read-out: INH
Rattus norvegicus [5] = assay: Antiallergic activity in po dosed Sprague-Dawley rat assessed as inhibition of mouse antiserum-induced passive cutaneous anaphylaxis administered 1 hr before antiserum challenge measured after 30 mins by Evans blue staining
Rattus norvegicus [6] = assay: Antiallergic activity in Sprague-Dawley rat assessed as inhibition of mouse antiserum-induced passive cutaneous anaphylaxis at 5 to 6 times ED50 mg/kg, po administered 1 hr before antiserum challenge measured after 30 mins by Evans blue staining relative to control

| SMILES | inhibition (Rattus norvegicus [1]) | inhibition in vivo at 25 mg/kg (Rattus norvegicus [2]) [%] | inhibition in vivo at 50 mg/kg (Rattus norvegicus [3]) [%] | inhibition in vivo at 100 mg/kg (Rattus norvegicus [1]; read-out: INH) [%] | inhibition in vivo at 200 mg/kg (Rattus norvegicus [4]) [%] | ED50 (Rattus norvegicus [5]) [mg/kg] | inhibition (INH) (Rattus norvegicus [6]) [%] |
| --- | --- | --- | --- | --- | --- | --- | --- |
| Cn1cc2c(n1)[C@H]1CCc3cn(C)nc3[C@@H]1CC2 | inactive | – | – | – | – | – | – |
| c1[nH]nc2c1CC[C@H]1c3n[nH]cc3CC[C@H]21 | – | 33 | 61 | 65 | 63 | 35 | 60 |
| c1ccc(-n2ncc3c2[C@H]2CCc4cnn(-c5ccccc5)c4[C@@H]2CC3)cc1 | inactive | – | – | – | – | – | – |
